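Method: 48-hour compound exposure of cells in 96-well plates, five concentrations, linear interpolation of endpoints. GI50 is the concentration that inhibits growth by half.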 The source made the active and inactive calls. Rule as the data show it: active = GI50 up to about 1.1 µM and inactive = higher.
What was measured:
Test in all cases: growth of human tumour cells (NCI), 48 h
[1] = tested on: 786-0
[2] = tested on: A498
[3] = tested on: A549
[4] = tested on: ACHN
[5] = tested on: BT-549
[6] = tested on: CAKI-1
[7] = tested on: CCRF-CEM
[8] = tested on: COLO 205
[9] = tested on: DU-145
[10] = tested on: EKVX
[11] = tested on: HCT-116
[12] = tested on: HCT-15
[13] = tested on: HL-60
[14] = tested on: HOP-62
[15] = tested on: HOP-92
[16] = tested on: HT-29
[17] = tested on: Hs-578T
[18] = tested on: IGROV-1
[19] = tested on: K562
[20] = tested on: LOX IMVI
[21] = tested on: M14
[22] = tested on: MCF7
[23] = tested on: MDA-MB-231
[24] = tested on: MDA-MB-435
[25] = tested on: MDA-N
[26] = tested on: MOLT-4
[27] = tested on: Malme-3M
[28] = tested on: NCI-H226
[29] = tested on: NCI-H23
[30] = tested on: NCI/ADR-RES
[31] = tested on: OVCAR-3
[32] = tested on: OVCAR-4
[33] = tested on: OVCAR-5
[34] = tested on: OVCAR-8
[35] = tested on: PC-3
[36] = tested on: RPMI-8226
[37] = tested on: RXF 393
[38] = tested on: SF-268
[39] = tested on: SF-295
[40] = tested on: SF-539
[41] = tested on: SK-MEL-28
[42] = tested on: SK-MEL-2
[43] = tested on: SK-MEL-5
[44] = tested on: SK-OV-3
[45] = tested on: SN12C
[46] = tested on: SNB-19
[47] = tested on: SNB-75
[48] = tested on: SR
[49] = tested on: T47D
[50] = tested on: TK-10
[51] = tested on: U-251
[52] = tested on: UACC-257
[53] = tested on: UACC-62
[54] = tested on: UO-31
[55] = tested on: HCC 2998
[56] = tested on: KM12
[57] = tested on: NCI-H460
[58] = tested on: SW-620
[59] = tested on: NCI-H522

Which results are given for `CN(C)/C=N/c1ccc2[nH]c3ccccc3c2c1`?
GI50 [1]: 25.1 µM (inactive); GI50 [2]: 20.9 µM (inactive); GI50 [3]: 39.7 µM (inactive); GI50 [4]: 48.1 µM (inactive); GI50 [5]: > 100 µM (inactive); GI50 [6]: 35.2 µM (inactive); GI50 [7]: 30.9 µM (inactive); GI50 [8]: 16.6 µM (inactive); GI50 [9]: > 100 µM (inactive); GI50 [10]: 65 µM (inactive); GI50 [11]: 34.6 µM (inactive); GI50 [12]: 20.6 µM; GI50 [13]: 18.1 µM (inactive); GI50 [14]: 23.2 µM (inactive); GI50 [15]: 15.8 µM (inactive); GI50 [16]: 19.8 µM (inactive); GI50 [17]: 38.5 µM (inactive); GI50 [18]: 43.5 µM (inactive); GI50 [19]: 20.4 µM (inactive); GI50 [20]: 15.7 µM (inactive); GI50 [21]: 15.1 µM (inactive); GI50 [22]: 32.1 µM (inactive); GI50 [23]: 19.8 µM (inactive); GI50 [24]: 18 µM (inactive); GI50 [25]: 18.2 µM (inactive); GI50 [26]: 27.3 µM (inactive); GI50 [27]: 22.1 µM (inactive); GI50 [28]: 27.4 µM (inactive); GI50 [29]: 49.3 µM (inactive); GI50 [30]: 53.7 µM (inactive); GI50 [31]: > 100 µM (inactive); GI50 [32]: > 100 µM (inactive); GI50 [33]: 28.4 µM (inactive); GI50 [34]: 37.7 µM (inactive); GI50 [35]: 36.1 µM (inactive); GI50 [36]: 22.6 µM (inactive); GI50 [37]: 25.8 µM (inactive); GI50 [38]: 64.6 µM (inactive); GI50 [39]: 31.3 µM (inactive); GI50 [40]: 20.8 µM (inactive); GI50 [41]: 23.3 µM (inactive); GI50 [42]: 16.7 µM (inactive); GI50 [43]: 16.7 µM (inactive); GI50 [44]: 61.7 µM (inactive); GI50 [45]: 52.4 µM (inactive); GI50 [46]: > 100 µM (inactive); GI50 [47]: 37.7 µM (inactive); GI50 [48]: 12.2 µM (inactive); GI50 [49]: 30.6 µM (inactive); GI50 [50]: 28.2 µM (inactive); GI50 [51]: 28.8 µM (inactive); GI50 [52]: 15.9 µM (inactive); GI50 [53]: 21 µM (inactive); GI50 [54]: 29 µM (inactive)

What does the source list for `COc1ccc(CC2Cc3ccccc3CC(=O)N2)cc1OC` (stereo unspecified)?
GI50 [1]: > 100 µM (inactive); GI50 [2]: > 100 µM (inactive); GI50 [3]: > 100 µM (inactive); GI50 [4]: > 100 µM (inactive); GI50 [5]: 37.4 µM (inactive); GI50 [6]: > 100 µM (inactive); GI50 [7]: 28.1 µM (inactive); GI50 [8]: > 100 µM (inactive); GI50 [9]: > 100 µM (inactive); GI50 [10]: 89.7 µM (inactive); GI50 [55]: > 100 µM (inactive); GI50 [11]: 98.9 µM (inactive); GI50 [12]: > 100 µM; GI50 [13]: 21.4 µM (inactive); GI50 [14]: > 100 µM (inactive); GI50 [15]: 89.5 µM (inactive); GI50 [16]: > 100 µM (inactive); GI50 [17]: > 100 µM (inactive); GI50 [18]: > 100 µM (inactive); GI50 [19]: 44.9 µM (inactive); GI50 [56]: 39.2 µM (inactive); GI50 [20]: 32.8 µM (inactive); GI50 [21]: 54 µM (inactive); GI50 [22]: 52 µM (inactive); GI50 [23]: > 100 µM (inactive); GI50 [24]: 55.8 µM (inactive); GI50 [25]: 52.5 µM (inactive); GI50 [26]: 24.6 µM (inactive); GI50 [27]: > 100 µM (inactive); GI50 [28]: 43.6 µM (inactive); GI50 [29]: 87.7 µM (inactive); GI50 [57]: 42.8 µM (inactive); GI50 [30]: 27.5 µM (inactive); GI50 [31]: 97.3 µM (inactive); GI50 [32]: 57 µM (inactive); GI50 [33]: > 100 µM (inactive); GI50 [34]: 75 µM (inactive); GI50 [35]: 40.3 µM (inactive); GI50 [39]: 86.7 µM (inactive); GI50 [40]: > 100 µM (inactive); GI50 [41]: > 100 µM (inactive); GI50 [42]: > 100 µM (inactive); GI50 [43]: 14.3 µM (inactive); GI50 [44]: > 100 µM (inactive); GI50 [45]: > 100 µM (inactive); GI50 [46]: > 100 µM (inactive); GI50 [47]: 48.2 µM (inactive); GI50 [48]: 67.9 µM (inactive); GI50 [58]: > 100 µM (inactive); GI50 [49]: 17.3 µM (inactive); GI50 [50]: > 100 µM (inactive); GI50 [51]: > 100 µM (inactive); GI50 [52]: 47.4 µM (inactive); GI50 [53]: 48.2 µM (inactive); GI50 [54]: > 100 µM (inactive)

`CSC1=N/C(=C\c2ccco2)C(=O)N1CN1CCOCC1` was tested. Which GI50 [1] did it give?
The GI50 was 48.6 µM (inactive).

And the GI50 [2]?
The GI50 was > 60.1 µM (inactive).

And the GI50 [3]?
The GI50 was > 100 µM (inactive).

What about the GI50 [4] of the same compound?
The GI50 was 43 µM (inactive).

And the GI50 [5]?
Its GI50 is 19.4 µM (inactive).

And the GI50 [6]?
Its GI50 is 32 µM (inactive).

And the GI50 [7]?
Its GI50 is 30.4 µM (inactive).

And the GI50 [8]?
The GI50 was 38.5 µM (inactive).

What about the GI50 [9] of the same compound?
Its GI50 is 42.3 µM (inactive).

And the GI50 [10]?
The GI50 was > 79.1 µM (inactive).

What about the GI50 [55] of the same compound?
The GI50 was 25.7 µM (inactive).

And the GI50 [11]?
Its GI50 is 29.2 µM (inactive).

What about the GI50 [12] of the same compound?
Its GI50 is 33.7 µM.

What about the GI50 [14] of the same compound?
The GI50 was > 100 µM (inactive).

What about the GI50 [16] of the same compound?
The GI50 was 33.6 µM (inactive).

What about the GI50 [17] of the same compound?
The GI50 was > 100 µM (inactive).

What about the GI50 [18] of the same compound?
The GI50 was > 61.1 µM (inactive).

What about the GI50 [19] of the same compound?
The GI50 was 42.5 µM (inactive).

What about the GI50 [56] of the same compound?
Its GI50 is > 70.1 µM (inactive).

And the GI50 [20]?
Its GI50 is 30.7 µM (inactive).

And the GI50 [21]?
The GI50 was > 92.3 µM (inactive).

What about the GI50 [22] of the same compound?
Its GI50 is 23 µM (inactive).

And the GI50 [23]?
The GI50 was > 63.1 µM (inactive).

What about the GI50 [24] of the same compound?
The GI50 was > 62.2 µM (inactive).

What about the GI50 [25] of the same compound?
The GI50 was > 100 µM (inactive).

What about the GI50 [26] of the same compound?
The GI50 was 59.7 µM (inactive).

And the GI50 [27]?
Its GI50 is > 46.1 µM (inactive).

What about the GI50 [28] of the same compound?
The GI50 was 75 µM (inactive).

What about the GI50 [29] of the same compound?
The GI50 was > 100 µM (inactive).

And the GI50 [57]?
Its GI50 is 13.9 µM (inactive).

And the GI50 [59]?
The GI50 was > 100 µM (inactive).

What about the GI50 [30] of the same compound?
The GI50 was > 61.8 µM (inactive).

And the GI50 [31]?
Its GI50 is > 100 µM (inactive).

And the GI50 [32]?
Its GI50 is > 100 µM (inactive).

And the GI50 [33]?
The GI50 was > 100 µM (inactive).

What about the GI50 [34] of the same compound?
Its GI50 is 58.9 µM (inactive).

And the GI50 [35]?
Its GI50 is > 93.8 µM (inactive).

And the GI50 [36]?
Its GI50 is 32.7 µM (inactive).

And the GI50 [37]?
Its GI50 is 20.4 µM (inactive).

What about the GI50 [38] of the same compound?
The GI50 was > 44.4 µM (inactive).

And the GI50 [39]?
Its GI50 is > 100 µM (inactive).

And the GI50 [40]?
Its GI50 is 17.2 µM (inactive).

And the GI50 [41]?
Its GI50 is > 71.6 µM (inactive).

What about the GI50 [42] of the same compound?
The GI50 was > 91.4 µM (inactive).

And the GI50 [43]?
Its GI50 is 41.1 µM (inactive).

What about the GI50 [44] of the same compound?
The GI50 was > 100 µM (inactive).

And the GI50 [45]?
The GI50 was > 52.8 µM (inactive).

What about the GI50 [46] of the same compound?
Its GI50 is > 93.1 µM (inactive).

And the GI50 [47]?
The GI50 was > 100 µM (inactive).

What about the GI50 [48] of the same compound?
Its GI50 is 41.3 µM (inactive).

And the GI50 [58]?
Its GI50 is 31.7 µM (inactive).

And the GI50 [49]?
Its GI50 is 48.1 µM (inactive).

What about the GI50 [50] of the same compound?
Its GI50 is > 58.1 µM (inactive).

And the GI50 [51]?
The GI50 was > 100 µM (inactive).

And the GI50 [52]?
Its GI50 is 29.7 µM (inactive).

What about the GI50 [53] of the same compound?
The GI50 was 44.6 µM (inactive).

And the GI50 [54]?
The GI50 was > 69.8 µM (inactive).
